# Experimental data as given in patent publication US7074789B2, “Kinase inhibitors” (Amgen Inc., priority 1999, dated 2006).
# Read-outs that look alike come from different tables or passages of the source.
# Key:
# Format in all cases: biochemical
# IGFR-1 = target: T1, IGFR-1 (Homo sapiens, UniProt P08069); experiment: Kinase inhibition assay, IGFR-1 (Table 2); settings: Table 2, kinase inhibition class
# T1 construct: Kinases are expressed as either kinase domains or full length constructs; made in house
# Lck = target: T2, Lck (Homo sapiens, UniProt P06239); experiment: Kinase inhibition assay (33P transfer), Lck; settings: read-out: Lck-1
# T2 construct: Kinases are expressed as either kinase domains or full length constructs; made in house
# In short: (§1)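 Steps: express kinase as GST or polyHistidine fusion in E. coli or High Five cells; optionally co-express or mix with regulatory polypeptides; incubate with 33P-ATP and plate-attached poly(Glu,Tyr) 4:1 or poly(Arg,Ser) 3:1; wash with 0.5% phosphoric acid; count by liquid scintillation.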
# Itk = target: T3, Itk (Homo sapiens, UniProt Q08881); experiment: Kinase inhibition assay (33P transfer), Itk; settings: read-out: Itk-1
# T3 construct: Kinases are expressed as either kinase domains or full length constructs; made in house
# T3 sequence (Q08881 1-620): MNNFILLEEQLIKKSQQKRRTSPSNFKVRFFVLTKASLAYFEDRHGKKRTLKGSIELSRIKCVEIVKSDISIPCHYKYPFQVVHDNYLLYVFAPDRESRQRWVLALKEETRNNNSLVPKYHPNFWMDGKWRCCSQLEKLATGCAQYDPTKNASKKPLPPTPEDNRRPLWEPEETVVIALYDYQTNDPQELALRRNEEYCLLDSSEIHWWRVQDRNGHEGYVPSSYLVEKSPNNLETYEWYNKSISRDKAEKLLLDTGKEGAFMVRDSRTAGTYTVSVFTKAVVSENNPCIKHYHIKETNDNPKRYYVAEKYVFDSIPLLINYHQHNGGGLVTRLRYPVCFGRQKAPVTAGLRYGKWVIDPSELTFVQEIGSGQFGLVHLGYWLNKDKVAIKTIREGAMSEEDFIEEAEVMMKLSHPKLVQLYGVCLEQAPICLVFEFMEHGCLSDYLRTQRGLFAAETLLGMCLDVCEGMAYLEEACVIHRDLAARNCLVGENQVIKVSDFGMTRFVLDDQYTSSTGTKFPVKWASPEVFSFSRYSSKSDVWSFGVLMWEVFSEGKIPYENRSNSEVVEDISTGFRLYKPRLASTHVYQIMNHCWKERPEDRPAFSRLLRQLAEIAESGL
# In short: (§2)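 Activity read as 33P incorporation from ATP into poly(Glu,Tyr) 4:1 or poly(Arg,Ser) 3:1 substrate bound to microtiter plates, measured by scintillation after acid washing. Enzymes were affinity-purified GST or polyHis fusions (kinase domain or full length) from E. coli or baculovirus; IC50 = 50% reduction in labelled phosphate.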
# EGFR = target: T4, EGFR (Homo sapiens, UniProt P00533); experiment: Kinase inhibition assay (33P transfer), EGFR; settings: Table 2, kinase inhibition class; read-out: EGFR-1
# T4 construct: Kinases are expressed as either kinase domains or full length constructs; made in house
# In short: as §2
# PDGFRB = target: T5, PDGFRB (Homo sapiens, UniProt P09619); experiment: Kinase inhibition assay (33P transfer), PDGFRB; settings: read-out: PDGFRB-1
# T5 construct: Kinases are expressed as either kinase domains or full length constructs; made in house
# c-Met = target: T6, c-Met (Homo sapiens, UniProt P08581); experiment: Kinase inhibition assay (33P transfer), c-Met; settings: Table 2, kinase inhibition class; read-out: Met-1
# T6 construct: Kinases are expressed as either kinase domains or full length constructs; made in house
# In short: as §2
# AKT = target: T7, AKT (Homo sapiens, UniProt Q9Y243); experiment: Kinase inhibition assay (33P transfer), AKT; settings: Table 2, kinase inhibition class; read-out: AKT3-1
# T7 construct: Kinases are expressed as either kinase domains or full length constructs; made in house
# In short: as §1
# ErbB2 = target: T8, ErbB2 (Homo sapiens, UniProt P04626); experiment: Kinase inhibition assay (33P transfer), ErbB2; settings: read-out: ErbB2-2
# T8 construct: Kinases are expressed as either kinase domains or full length constructs; made in house
# In short: as §2
# Kdr = target: T9, Kdr (Homo sapiens, UniProt P35968); experiment: Kinase inhibition assay (33P transfer), Kdr
# T9 construct: Kinases are expressed as either kinase domains or full length constructs; made in house
# In short: as §1
# Zap-70 = target: T10, Zap-70 (Homo sapiens, UniProt P43403); experiment: Kinase inhibition assay (33P transfer), Zap-70; settings: read-out: Zap-1
# T10 construct: Kinases are expressed as either kinase domains or full length constructs; made in house
# T10 sequence (P43403 1-619): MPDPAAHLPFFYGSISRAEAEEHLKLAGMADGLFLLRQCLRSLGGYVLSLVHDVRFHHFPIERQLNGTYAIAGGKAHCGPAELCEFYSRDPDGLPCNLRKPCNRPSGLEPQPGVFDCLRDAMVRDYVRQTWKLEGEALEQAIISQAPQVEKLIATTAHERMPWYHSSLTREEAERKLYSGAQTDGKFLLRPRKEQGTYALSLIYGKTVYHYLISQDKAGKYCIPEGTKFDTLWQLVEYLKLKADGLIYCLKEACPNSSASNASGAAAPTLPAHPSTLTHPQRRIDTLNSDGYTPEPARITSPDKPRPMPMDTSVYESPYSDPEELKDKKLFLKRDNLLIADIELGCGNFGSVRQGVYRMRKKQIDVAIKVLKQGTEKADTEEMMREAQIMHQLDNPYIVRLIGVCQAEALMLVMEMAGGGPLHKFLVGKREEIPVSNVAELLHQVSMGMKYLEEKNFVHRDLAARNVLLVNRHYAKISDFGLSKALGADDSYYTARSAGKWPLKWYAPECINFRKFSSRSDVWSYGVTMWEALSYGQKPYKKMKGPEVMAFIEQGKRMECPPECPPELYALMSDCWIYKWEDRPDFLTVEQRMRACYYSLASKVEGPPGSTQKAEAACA
# In short: as §1
# Tek = target: T11, Tek (Homo sapiens, UniProt Q02763); experiment: Kinase inhibition assay (33P transfer), Tek; settings: read-out: Tek-1
# T11 construct: Kinases are expressed as either kinase domains or full length constructs; made in house
# In short: as §2
# T9 sequence (P35968 20-1356, species assumed): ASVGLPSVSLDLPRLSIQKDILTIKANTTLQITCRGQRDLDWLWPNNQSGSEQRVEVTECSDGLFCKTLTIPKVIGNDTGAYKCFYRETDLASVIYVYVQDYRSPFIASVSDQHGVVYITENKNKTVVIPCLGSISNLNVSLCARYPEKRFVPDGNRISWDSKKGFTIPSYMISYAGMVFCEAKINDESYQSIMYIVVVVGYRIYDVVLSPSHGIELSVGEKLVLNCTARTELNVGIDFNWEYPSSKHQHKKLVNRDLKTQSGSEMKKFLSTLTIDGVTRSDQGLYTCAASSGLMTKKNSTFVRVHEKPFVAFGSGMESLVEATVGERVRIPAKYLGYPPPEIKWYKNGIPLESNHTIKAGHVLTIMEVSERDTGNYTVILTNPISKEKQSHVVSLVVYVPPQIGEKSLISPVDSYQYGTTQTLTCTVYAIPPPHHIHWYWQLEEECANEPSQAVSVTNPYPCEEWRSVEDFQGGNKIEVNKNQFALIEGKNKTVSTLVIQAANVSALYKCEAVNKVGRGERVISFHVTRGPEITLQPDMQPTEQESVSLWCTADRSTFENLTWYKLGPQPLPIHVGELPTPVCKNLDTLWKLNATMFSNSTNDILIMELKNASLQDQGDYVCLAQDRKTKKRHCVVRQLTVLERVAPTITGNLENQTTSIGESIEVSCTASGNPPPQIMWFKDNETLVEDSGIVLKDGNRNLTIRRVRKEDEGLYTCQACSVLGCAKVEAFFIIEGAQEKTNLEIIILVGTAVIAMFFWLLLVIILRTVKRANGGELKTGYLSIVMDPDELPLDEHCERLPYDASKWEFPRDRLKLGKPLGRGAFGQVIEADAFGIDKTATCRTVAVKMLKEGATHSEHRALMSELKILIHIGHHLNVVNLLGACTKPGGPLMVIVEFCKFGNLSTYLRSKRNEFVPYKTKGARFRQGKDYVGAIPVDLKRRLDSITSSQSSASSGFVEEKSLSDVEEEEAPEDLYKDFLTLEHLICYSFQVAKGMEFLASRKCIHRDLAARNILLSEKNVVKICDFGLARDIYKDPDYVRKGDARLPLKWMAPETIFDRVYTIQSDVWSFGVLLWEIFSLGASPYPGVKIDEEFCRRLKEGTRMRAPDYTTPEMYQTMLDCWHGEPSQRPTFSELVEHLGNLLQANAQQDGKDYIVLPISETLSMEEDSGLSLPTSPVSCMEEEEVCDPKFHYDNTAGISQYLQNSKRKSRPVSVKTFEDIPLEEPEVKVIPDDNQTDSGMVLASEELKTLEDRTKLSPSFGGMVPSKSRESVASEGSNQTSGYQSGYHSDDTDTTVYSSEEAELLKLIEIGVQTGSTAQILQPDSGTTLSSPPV
# T4 sequence (P00533 25-1210, species assumed): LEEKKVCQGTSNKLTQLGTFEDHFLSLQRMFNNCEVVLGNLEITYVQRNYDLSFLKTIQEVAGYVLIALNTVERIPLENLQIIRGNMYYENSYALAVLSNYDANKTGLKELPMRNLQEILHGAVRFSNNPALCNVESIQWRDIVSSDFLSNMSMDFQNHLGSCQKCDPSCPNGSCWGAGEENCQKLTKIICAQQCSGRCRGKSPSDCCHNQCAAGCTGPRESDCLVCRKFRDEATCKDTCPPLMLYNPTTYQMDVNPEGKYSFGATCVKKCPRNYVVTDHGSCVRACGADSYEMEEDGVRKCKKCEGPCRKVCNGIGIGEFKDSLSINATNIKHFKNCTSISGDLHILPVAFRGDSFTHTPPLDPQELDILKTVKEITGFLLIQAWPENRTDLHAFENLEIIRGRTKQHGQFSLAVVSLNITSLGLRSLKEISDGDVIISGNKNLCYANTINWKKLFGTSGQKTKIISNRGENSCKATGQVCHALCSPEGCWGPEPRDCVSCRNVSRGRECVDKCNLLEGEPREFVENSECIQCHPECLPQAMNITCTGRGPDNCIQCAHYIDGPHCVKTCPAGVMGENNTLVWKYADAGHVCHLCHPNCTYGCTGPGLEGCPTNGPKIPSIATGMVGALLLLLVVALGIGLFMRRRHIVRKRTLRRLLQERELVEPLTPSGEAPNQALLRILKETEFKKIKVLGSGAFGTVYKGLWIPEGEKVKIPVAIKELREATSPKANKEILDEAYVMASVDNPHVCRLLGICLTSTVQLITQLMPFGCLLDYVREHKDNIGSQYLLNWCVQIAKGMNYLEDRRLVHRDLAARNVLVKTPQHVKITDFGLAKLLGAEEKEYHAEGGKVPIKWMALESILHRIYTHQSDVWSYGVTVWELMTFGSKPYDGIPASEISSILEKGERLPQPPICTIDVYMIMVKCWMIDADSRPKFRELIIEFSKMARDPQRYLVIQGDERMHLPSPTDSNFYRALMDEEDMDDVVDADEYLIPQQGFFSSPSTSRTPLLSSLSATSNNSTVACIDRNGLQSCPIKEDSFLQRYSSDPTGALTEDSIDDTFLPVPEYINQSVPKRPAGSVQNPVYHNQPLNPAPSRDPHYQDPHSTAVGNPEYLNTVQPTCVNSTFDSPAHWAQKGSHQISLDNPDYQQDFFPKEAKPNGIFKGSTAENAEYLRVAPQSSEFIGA
# T1 sequence (P08069 31-1367): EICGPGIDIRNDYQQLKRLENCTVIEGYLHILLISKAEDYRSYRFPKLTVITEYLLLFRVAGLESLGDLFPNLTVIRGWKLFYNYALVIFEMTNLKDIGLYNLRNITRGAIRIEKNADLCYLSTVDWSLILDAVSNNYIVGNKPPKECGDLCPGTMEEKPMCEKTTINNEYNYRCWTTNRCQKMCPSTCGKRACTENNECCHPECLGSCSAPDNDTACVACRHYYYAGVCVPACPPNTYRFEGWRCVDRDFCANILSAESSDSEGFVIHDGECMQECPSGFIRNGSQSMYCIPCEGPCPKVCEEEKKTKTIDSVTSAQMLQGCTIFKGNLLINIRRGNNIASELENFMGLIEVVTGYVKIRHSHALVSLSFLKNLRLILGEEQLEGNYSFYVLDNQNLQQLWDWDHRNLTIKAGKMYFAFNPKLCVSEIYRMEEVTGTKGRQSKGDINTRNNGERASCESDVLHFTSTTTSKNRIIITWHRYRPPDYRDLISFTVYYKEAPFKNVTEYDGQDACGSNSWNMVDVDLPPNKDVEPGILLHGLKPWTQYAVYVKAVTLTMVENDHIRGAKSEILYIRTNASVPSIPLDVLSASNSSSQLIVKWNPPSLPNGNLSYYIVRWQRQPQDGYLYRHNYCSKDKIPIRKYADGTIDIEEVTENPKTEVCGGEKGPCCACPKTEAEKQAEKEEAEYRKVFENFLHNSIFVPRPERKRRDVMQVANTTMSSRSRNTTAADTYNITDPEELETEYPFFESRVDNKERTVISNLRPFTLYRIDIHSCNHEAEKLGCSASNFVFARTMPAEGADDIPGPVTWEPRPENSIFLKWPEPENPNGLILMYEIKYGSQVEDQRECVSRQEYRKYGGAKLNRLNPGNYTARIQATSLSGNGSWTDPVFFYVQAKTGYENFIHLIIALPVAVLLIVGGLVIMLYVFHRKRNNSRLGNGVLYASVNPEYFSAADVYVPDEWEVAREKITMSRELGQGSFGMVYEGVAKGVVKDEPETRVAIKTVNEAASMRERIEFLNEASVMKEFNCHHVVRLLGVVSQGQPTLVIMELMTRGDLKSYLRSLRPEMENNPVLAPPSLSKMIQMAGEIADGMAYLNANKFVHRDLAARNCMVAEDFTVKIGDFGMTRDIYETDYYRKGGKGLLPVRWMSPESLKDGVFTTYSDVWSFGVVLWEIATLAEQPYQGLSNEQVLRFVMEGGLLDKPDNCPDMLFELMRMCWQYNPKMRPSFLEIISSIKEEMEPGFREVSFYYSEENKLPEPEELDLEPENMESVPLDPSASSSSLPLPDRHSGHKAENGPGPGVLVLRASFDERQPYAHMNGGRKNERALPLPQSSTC
# T2 sequence (P06239 whole entry, species assumed, the tested form may be a part): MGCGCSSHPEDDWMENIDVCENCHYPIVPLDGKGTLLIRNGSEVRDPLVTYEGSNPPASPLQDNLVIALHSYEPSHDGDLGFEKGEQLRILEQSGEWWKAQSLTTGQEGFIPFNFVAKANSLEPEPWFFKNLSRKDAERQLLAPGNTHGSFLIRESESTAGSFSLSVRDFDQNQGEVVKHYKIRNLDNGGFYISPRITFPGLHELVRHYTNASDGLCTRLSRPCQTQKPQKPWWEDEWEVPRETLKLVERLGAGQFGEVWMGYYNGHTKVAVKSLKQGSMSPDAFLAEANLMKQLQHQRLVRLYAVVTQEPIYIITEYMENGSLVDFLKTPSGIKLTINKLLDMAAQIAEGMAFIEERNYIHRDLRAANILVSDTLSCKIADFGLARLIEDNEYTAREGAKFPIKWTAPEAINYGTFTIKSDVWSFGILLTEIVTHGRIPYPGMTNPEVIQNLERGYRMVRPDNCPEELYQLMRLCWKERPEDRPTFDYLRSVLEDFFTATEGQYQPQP
# T7 sequence (Q9Y243 whole entry, the tested form may be a part): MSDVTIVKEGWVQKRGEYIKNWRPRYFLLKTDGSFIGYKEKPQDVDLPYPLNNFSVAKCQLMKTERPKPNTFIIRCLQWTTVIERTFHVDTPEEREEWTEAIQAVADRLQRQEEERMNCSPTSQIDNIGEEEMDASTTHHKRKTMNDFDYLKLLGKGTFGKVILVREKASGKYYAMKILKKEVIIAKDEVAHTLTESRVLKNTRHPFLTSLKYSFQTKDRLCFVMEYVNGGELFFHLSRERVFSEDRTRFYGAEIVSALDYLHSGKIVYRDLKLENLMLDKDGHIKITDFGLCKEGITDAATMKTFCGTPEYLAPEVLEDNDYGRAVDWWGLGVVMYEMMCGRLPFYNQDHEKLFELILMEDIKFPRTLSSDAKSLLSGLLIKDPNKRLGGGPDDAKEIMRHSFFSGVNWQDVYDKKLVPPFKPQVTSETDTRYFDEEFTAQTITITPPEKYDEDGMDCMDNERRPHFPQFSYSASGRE
SMILES,IC50 (IGFR-1) [µM],IC50 (Lck) [µM],IC50 (Itk) [µM],IC50 (EGFR) [µM],IC50 (PDGFRB) [µM],IC50 (c-Met) [µM],IC50 (AKT) [µM],IC50 (ErbB2) [µM],IC50 (Kdr; read-out: KDR-1) [µM],IC50 (Zap-70) [µM],IC50 (Tek) [µM],IC50 (Kdr; KDR-1) [µM]
COc1ccc(Nc2ncnc(Nc3cc(OC)c(OC)c(OC)c3)n2)cc1OCCN1CCOCC1 [Compound 599],> 8.78,0.78 to 4.68,> 8.78,6.83 to 8.78,0.78 to 4.68,> 8.78,> 8.78,4.68 to 6.83,4.68 to 6.83,> 8.78,–,–
COc1cc(Nc2ncnc(Nc3cc(OC)c(OC)c(OC)c3)n2)ccc1OCCN1CCOCC1 [Compound 601],> 8.78,0.78 to 4.68,> 8.78,0.78 to 4.68,0.78 to 4.68,> 8.78,> 8.78,0.78 to 4.68,4.68 to 6.83,> 8.78,–,–
COC(=O)c1ccc(-c2cc(Nc3ncnc(Nc4cccc(CC(=O)O)c4)n3)[nH]n2)cc1 [Compound 604],0.898 to 5.39,0.898 to 5.39,0.898 to 5.39,0.898 to 5.39,0.898 to 5.39,< 0.898,5.39 to 7.86,0.898 to 5.39,0.898 to 5.39,5.39 to 7.86,–,–
COc1cc(Nc2ncnc(Nc3ccc(NC(C)=O)c(C(F)(F)F)c3)n2)cc(OC)c1OC [Compound 617],5.02 to 7.32,0.836 to 5.02,> 9.41,5.02 to 7.32,0.836 to 5.02,> 9.41,> 9.41,> 9.41,0.836 to 5.02,> 9.41,–,–
Nc1nc2ccccc2n1-c1ncnc(Nc2ccccn2)n1 [Compound 659],1.31 to 7.89,7.89 to 11.5,1.31 to 7.89,> 14.8,> 14.8,> 14.8,> 14.8,> 14.8,–,> 14.8,–,7.89 to 11.5
COc1cc(Nc2ncnc(NC(=O)NCc3ccccc3)n2)cc(OC)c1OC [Compound 660],> 11,0.975 to 5.85,> 11,0.975 to 5.85,> 11,> 11,> 11,5.85 to 8.53,> 11,> 11,–,–
COc1cc(Nc2ncnc(NC(=O)NCCc3ccccc3)n2)cc(OC)c1OC [Compound 661],> 10.6,> 10.6,> 10.6,> 10.6,> 10.6,> 10.6,> 10.6,> 10.6,0.942 to 5.65,> 10.6,–,–

# The next lines start with results.
IC50 (IGFR-1) [µM],IC50 (Lck) [µM],IC50 (Itk) [µM],IC50 (EGFR) [µM],IC50 (PDGFRB) [µM],IC50 (c-Met) [µM],IC50 (AKT) [µM],IC50 (ErbB2) [µM],IC50 (Kdr; read-out: KDR-1) [µM],IC50 (Zap-70) [µM],IC50 (Tek) [µM],SMILES,IC50 (Kdr; KDR-1) [µM]
< 0.892,0.892 to 5.35,7.8 to 10,> 10,0.892 to 5.35,> 10,> 10,–,0.892 to 5.35,> 10,5.35 to 7.8,CCN(CC)CCOc1cc(Nc2ncnc(-n3c(N)nc4ccccc43)n2)ccc1OC [Compound 649],–
< 0.865,0.865 to 5.19,> 9.73,> 9.73,0.865 to 5.19,7.57 to 9.73,> 9.73,–,< 0.865,> 9.73,7.57 to 9.73,COc1cc(Nc2ncnc(-n3c(N)nc4ccccc43)n2)ccc1OCCN1CCOCC1 [Compound 650],–
< 1.32,1.32 to 7.91,1.32 to 7.91,> 14.8,1.32 to 7.91,1.32 to 7.91,> 14.8,–,< 1.32,> 14.8,7.91 to 11.5,Nc1nc2ccccc2n1-c1ncnc(Nc2ccccc2)n1 [Compound 651],–
